Holding throughout (type): physicochemical
Series [1] is described as follows: Thermogravimetric analysis (TGA), onset of degradation on heating. The following applies: heated at 10° C./min from 25° C. On the procedure:
Thermogravimetric analysis (TGA) was performed in TA Instruments TG2950 (TA Instruments, New Castle, Del.). The samples were scanned at 10° C./minute with a dry nitrogen purge at 60 mL/minute.
For TGA analysis, the sample was heated at 10° C./min from 25° C. to 150° C. The air dried amorphous material contained about 5 wt % residual solvent. Since the TGA data also indicated degradation begins at 90° C., the residual solvent can be removed by holding the sample in the TGA for 1 hour at 25° C. (FIG. 5). At the end of the hour, the weight reached a constant value and the sample had lost 5% of its weight.
For the TGA analysis, the sample was heated at 10° C./min from 25° C. to 150° C. The air dried amorphous material contained some (˜10 wt %) residual methanol (FIG. 10). […] (FIG. 11). At the end of the hour, the weight reached a constant value and the sample had lost 10% of its weight.
For the TGA analysis, the sample was heated at 10° C./min from 25° C. to 200° C. The air dried amorphous material contained some (˜7 wt %) residual methanol. […] (FIG. 16). At the end of the hour, the weight reached a constant value and the sample had lost 7% of its weight.

Series [2] is described as follows: HPLC potency of the isolated amorphous material, before and after drying. As to the method:
For High Pressure Liquid Chromatography (HPLC), the sample isolated by evaporating methanol was analyzed by HPLC for potency. […] By careful drying at lower temperatures, the potency loss could be alleviated.
For the HPLC analysis, the sample isolated by evaporating methanol was analyzed by HPLC for potency. […] When the sample was re-analyzed after drying in the TGA at 25° C. or 70° C., the potency remained at 99 wt %. Therefore, the presence of Eudragit EPO improved the stability of the amorphous phase.

Series [3] in a line: Physical stability of the amorphous material isolated by evaporating a methanolic solution. The text has this:
Amorphous Cefdinir was isolated by evaporating a methanolic solution.
Stable amorphous Cefdinir with Eudragit EPO was made and isolated by evaporating a methanolic solution.
Amorphous cefdinir with PVP was made and isolated by evaporating a methanolic solution.

This note sets out measurements from patent US20060069079A1, “Stable amorphous cefdinir” (priority 2004, published 2006).

Molecules are shown by their SMILES.

For the compound `C=CC1=C(C(=O)O)N2C(=O)C(NC(=O)C(=NO)c3csc(N)n3)[C@H]2SC1` (single isomer, unassigned) [Amorphous Cefdinir, 7-[2-(2-aminothiazol-4-yl)-2-hydroxyiminoacetamide]-3-vinyl-3-cephem-4-carboxylic acid (syn isomer)], in series [1], the “temperature at which degradation begins (TGA)” value is 90 °C. Further, the “potency by HPLC after drying” value in series [2] (reanalyzed after drying in the TGA at 25° C. or 70° C.) is recorded as 93%. In series [2] (sample isolated by evaporating methanol, after accounting for residual solvent), the “potency by HPLC” value is on record as 98%. Also, the physical stability entry in series [3] is given as “physically stable”.
